PubChem BioAssay (NCI)
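Growth conditions: 96-well plates. Treatment: test compound, 48 hours, 5 concentrations. Analysis: linear interpolation between bracketing concentrations; unreached endpoints set to highest concentration. Abbreviation: GI50, concentration required for 50% inhibition of growth. The concentration for full growth arrest is given as TGI.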

Key:
Test in all cases: NCI-60 cell line screen, 48 h
SF-295 CNS = tested on: SF-295 CNS
NCI-H460 lung = tested on: NCI-H460 lung
SK-MEL-2 melanoma = tested on: SK-MEL-2 melanoma
SNB-75 CNS = tested on: SNB-75 CNS
TK-10 renal = tested on: TK-10 renal
NCI-H226 lung = tested on: NCI-H226 lung
COLO 205 colon = tested on: COLO 205 colon
LOX IMVI melanoma = tested on: LOX IMVI melanoma
MOLT-4 leukemia = tested on: MOLT-4 leukemia
PC-3 prostate = tested on: PC-3 prostate
SF-539 CNS = tested on: SF-539 CNS
RPMI-8226 leukemia = tested on: RPMI-8226 leukemia
MALME-3M melanoma = tested on: MALME-3M melanoma
HCC-2998 colon = tested on: HCC-2998 colon
BT-549 breast = tested on: BT-549 breast
NCI-H23 lung = tested on: NCI-H23 lung
CCRF-CEM leukemia = tested on: CCRF-CEM leukemia
NCI/ADR-RES ovarian = tested on: NCI/ADR-RES ovarian
SF-268 CNS = tested on: SF-268 CNS
T-47D breast = tested on: T-47D breast
U251 CNS = tested on: U251 CNS
HL-60(TB) leukemia = tested on: HL-60(TB) leukemia
HOP-62 NSCLC = tested on: HOP-62 NSCLC
ACHN renal = tested on: ACHN renal
OVCAR-8 ovarian = tested on: OVCAR-8 ovarian
RXF 393 renal = tested on: RXF 393 renal
HT29 colon = tested on: HT29 colon
786-0 renal = tested on: 786-0 renal
OVCAR-3 ovarian = tested on: OVCAR-3 ovarian
EKVX NSCLC = tested on: EKVX NSCLC
HS 578T breast = tested on: HS 578T breast
SK-MEL-5 melanoma = tested on: SK-MEL-5 melanoma
SW-620 colon = tested on: SW-620 colon
DU-145 prostate = tested on: DU-145 prostate
SNB-19 CNS = tested on: SNB-19 CNS
UO-31 renal = tested on: UO-31 renal
IGROV1 ovarian = tested on: IGROV1 ovarian
MDA-MB-231 breast = tested on: MDA-MB-231 breast
SN12C renal = tested on: SN12C renal
KM12 colon = tested on: KM12 colon
OVCAR-4 ovarian = tested on: OVCAR-4 ovarian
K-562 leukemia = tested on: K-562 leukemia
UACC-257 melanoma = tested on: UACC-257 melanoma
HOP-92 NSCLC = tested on: HOP-92 NSCLC
M14 melanoma = tested on: M14 melanoma
SK-MEL-28 melanoma = tested on: SK-MEL-28 melanoma
A549 NSCLC = tested on: A549 NSCLC
SK-OV-3 ovarian = tested on: SK-OV-3 ovarian
OVCAR-5 ovarian = tested on: OVCAR-5 ovarian
A498 renal = tested on: A498 renal
UACC-62 melanoma = tested on: UACC-62 melanoma
MDA-MB-435 = tested on: MDA-MB-435
MCF7 breast = tested on: MCF7 breast
HCT-15 colon = tested on: HCT-15 colon
CAKI-1 renal = tested on: CAKI-1 renal
HCT-116 colon = tested on: HCT-116 colon

Cc1ccc(CS/C(=C\c2ccc([N+](=O)[O-])cc2)C(=O)c2ccc(F)cc2)cc1
GI50 (SF-295 CNS): 2.25 µM | TGI (SF-295 CNS): 6.48 µM | GI50 (NCI-H460 lung): 6.44 µM | TGI (NCI-H460 lung): 22.5 µM | GI50 (SK-MEL-2 melanoma): 15.3 µM | TGI (SK-MEL-2 melanoma): 40.5 µM | GI50 (SNB-75 CNS): 19.2 µM | TGI (SNB-75 CNS): 71.8 µM | GI50 (TK-10 renal): 15.1 µM | TGI (TK-10 renal): 32.2 µM | GI50 (NCI-H226 lung): 3.17 µM | TGI (NCI-H226 lung): 15 µM | GI50 (COLO 205 colon): 3.72 µM | TGI (COLO 205 colon): 16.6 µM | GI50 (LOX IMVI melanoma): 1.64 µM | TGI (LOX IMVI melanoma): 3 µM | GI50 (MOLT-4 leukemia): 3.35 µM | TGI (MOLT-4 leukemia): > 100 µM | GI50 (PC-3 prostate): 2.36 µM | TGI (PC-3 prostate): 6.2 µM | GI50 (SF-539 CNS): 3.22 µM | TGI (SF-539 CNS): 10.8 µM | GI50 (RPMI-8226 leukemia): 0.458 µM | TGI (RPMI-8226 leukemia): 3.51 µM | GI50 (MALME-3M melanoma): 2.86 µM | TGI (MALME-3M melanoma): 10.4 µM | GI50 (HCC-2998 colon): 2.73 µM | TGI (HCC-2998 colon): 8.42 µM | GI50 (BT-549 breast): 1.92 µM | TGI (BT-549 breast): 4.38 µM | GI50 (NCI-H23 lung): 4.78 µM | TGI (NCI-H23 lung): 41 µM | GI50 (CCRF-CEM leukemia): 2.23 µM | TGI (CCRF-CEM leukemia): > 100 µM | GI50 (NCI/ADR-RES ovarian): 3.28 µM | TGI (NCI/ADR-RES ovarian): > 100 µM | GI50 (SF-268 CNS): 4.13 µM | TGI (SF-268 CNS): 20.7 µM | GI50 (T-47D breast): 4.53 µM | TGI (T-47D breast): 22.4 µM | GI50 (U251 CNS): 1.67 µM | TGI (U251 CNS): 3.1 µM | GI50 (HL-60(TB) leukemia): 2.9 µM | TGI (HL-60(TB) leukemia): 17.3 µM | GI50 (HOP-62 NSCLC): 11.5 µM | TGI (HOP-62 NSCLC): 29.2 µM | GI50 (ACHN renal): 1.73 µM | TGI (ACHN renal): 3.1 µM | GI50 (OVCAR-8 ovarian): 3.42 µM | TGI (OVCAR-8 ovarian): 19.4 µM | GI50 (RXF 393 renal): 13 µM | TGI (RXF 393 renal): 31.8 µM | GI50 (HT29 colon): 1.78 µM | TGI (HT29 colon): 4.26 µM | GI50 (786-0 renal): 2.11 µM | TGI (786-0 renal): 4.99 µM | GI50 (OVCAR-3 ovarian): 1.95 µM | TGI (OVCAR-3 ovarian): 4.02 µM | GI50 (EKVX NSCLC): 4.72 µM | TGI (EKVX NSCLC): 24 µM | GI50 (HS 578T breast): 2.35 µM | TGI (HS 578T breast): 6.34 µM | GI50 (SK-MEL-5 melanoma): 2.4 µM | TGI (SK-MEL-5 melanoma): 5.98 µM | GI50 (SW-620 colon): 1.67 µM | TGI (SW-620 colon): 3.71 µM | GI50 (DU-145 prostate): 21.1 µM | TGI (DU-145 prostate): > 100 µM | GI50 (SNB-19 CNS): 1.98 µM | TGI (SNB-19 CNS): 4.36 µM | GI50 (UO-31 renal): 2.72 µM | TGI (UO-31 renal): 13.3 µM | GI50 (IGROV1 ovarian): 4.49 µM | TGI (IGROV1 ovarian): 31.3 µM | GI50 (MDA-MB-231 breast): 2.42 µM | TGI (MDA-MB-231 breast): 6.08 µM | GI50 (SN12C renal): 2.98 µM | TGI (SN12C renal): 9.48 µM | GI50 (KM12 colon): 2.16 µM | TGI (KM12 colon): 5.13 µM | GI50 (OVCAR-4 ovarian): 3.04 µM | TGI (OVCAR-4 ovarian): 13.3 µM | GI50 (K-562 leukemia): 3.21 µM | TGI (K-562 leukemia): > 100 µM | GI50 (UACC-257 melanoma): 5.61 µM | TGI (UACC-257 melanoma): 19.9 µM | GI50 (HOP-92 NSCLC): 14.1 µM | TGI (HOP-92 NSCLC): 41.3 µM | GI50 (M14 melanoma): 3.07 µM | TGI (M14 melanoma): 15.6 µM | GI50 (SK-MEL-28 melanoma): 5.46 µM | TGI (SK-MEL-28 melanoma): 26.5 µM | GI50 (A549 NSCLC): 49.1 µM | TGI (A549 NSCLC): > 100 µM | GI50 (SK-OV-3 ovarian): 17.7 µM | TGI (SK-OV-3 ovarian): > 100 µM | GI50 (OVCAR-5 ovarian): 2.6 µM | TGI (OVCAR-5 ovarian): 9.01 µM | GI50 (A498 renal): 15.6 µM | TGI (A498 renal): 36 µM | GI50 (UACC-62 melanoma): 2.46 µM | TGI (UACC-62 melanoma): 8.77 µM | GI50 (MDA-MB-435): 2.41 µM | TGI (MDA-MB-435): 6.49 µM

COc1cc2c3c(n(C)c(=O)c2cc1OC)-c1cc2c(cc1/C3=C\CCCN1C(=O)c3ccccc3C1=O)OCO2
GI50 (SF-295 CNS): 3.61 µM | TGI (SF-295 CNS): > 40 µM | GI50 (NCI-H460 lung): 4.76 µM | TGI (NCI-H460 lung): > 40 µM | GI50 (SNB-75 CNS): 27.8 µM | TGI (SNB-75 CNS): > 40 µM | GI50 (TK-10 renal): > 40 µM | TGI (TK-10 renal): > 40 µM | GI50 (COLO 205 colon): > 40 µM | TGI (COLO 205 colon): > 40 µM | GI50 (LOX IMVI melanoma): 20.8 µM | TGI (LOX IMVI melanoma): > 40 µM | GI50 (MOLT-4 leukemia): 1.18 µM | TGI (MOLT-4 leukemia): 5.17 µM | GI50 (PC-3 prostate): 4.79 µM | TGI (PC-3 prostate): 24.7 µM | GI50 (SF-539 CNS): 8.99 µM | TGI (SF-539 CNS): > 40 µM | GI50 (MALME-3M melanoma): > 40 µM | TGI (MALME-3M melanoma): > 40 µM | GI50 (BT-549 breast): 8.26 µM | TGI (BT-549 breast): > 40 µM | GI50 (NCI-H23 lung): > 40 µM | TGI (NCI-H23 lung): > 40 µM | GI50 (NCI/ADR-RES ovarian): > 40 µM | TGI (NCI/ADR-RES ovarian): > 40 µM | GI50 (SF-268 CNS): 14.2 µM | TGI (SF-268 CNS): > 40 µM | GI50 (T-47D breast): > 40 µM | TGI (T-47D breast): > 40 µM | GI50 (U251 CNS): 12.8 µM | TGI (U251 CNS): > 40 µM | GI50 (MCF7 breast): 6.94 µM | TGI (MCF7 breast): > 40 µM | GI50 (HOP-62 NSCLC): 19.2 µM | TGI (HOP-62 NSCLC): > 40 µM | GI50 (ACHN renal): 8.67 µM | TGI (ACHN renal): > 40 µM | GI50 (OVCAR-8 ovarian): 23.8 µM | TGI (OVCAR-8 ovarian): > 40 µM | GI50 (RXF 393 renal): > 40 µM | TGI (RXF 393 renal): > 40 µM | GI50 (HT29 colon): > 40 µM | TGI (HT29 colon): > 40 µM | GI50 (786-0 renal): > 40 µM | TGI (786-0 renal): > 40 µM | GI50 (OVCAR-3 ovarian): > 40 µM | TGI (OVCAR-3 ovarian): > 40 µM | GI50 (EKVX NSCLC): 5.2 µM | TGI (EKVX NSCLC): > 40 µM | GI50 (HS 578T breast): > 40 µM | TGI (HS 578T breast): > 40 µM | GI50 (SK-MEL-5 melanoma): 21.7 µM | TGI (SK-MEL-5 melanoma): > 40 µM | GI50 (SW-620 colon): 13.5 µM | TGI (SW-620 colon): > 40 µM | GI50 (DU-145 prostate): 6.73 µM | TGI (DU-145 prostate): > 40 µM | GI50 (SNB-19 CNS): > 40 µM | TGI (SNB-19 CNS): > 40 µM | GI50 (HCT-15 colon): > 40 µM | TGI (HCT-15 colon): > 40 µM | GI50 (CAKI-1 renal): 5.44 µM | TGI (CAKI-1 renal): > 40 µM | GI50 (KM12 colon): 5.1 µM | TGI (KM12 colon): > 40 µM | GI50 (OVCAR-4 ovarian): > 40 µM | TGI (OVCAR-4 ovarian): > 40 µM | GI50 (K-562 leukemia): 15 µM | TGI (K-562 leukemia): > 40 µM | GI50 (UACC-257 melanoma): > 40 µM | TGI (UACC-257 melanoma): > 40 µM | GI50 (HOP-92 NSCLC): 2.12 µM | TGI (HOP-92 NSCLC): 13.4 µM | GI50 (M14 melanoma): > 40 µM | TGI (M14 melanoma): > 40 µM | GI50 (SK-MEL-28 melanoma): > 40 µM | TGI (SK-MEL-28 melanoma): > 40 µM | GI50 (A549 NSCLC): 22 µM | TGI (A549 NSCLC): > 40 µM | GI50 (SK-OV-3 ovarian): > 40 µM | TGI (SK-OV-3 ovarian): > 40 µM | GI50 (HCT-116 colon): 26.2 µM | TGI (HCT-116 colon): > 40 µM | GI50 (OVCAR-5 ovarian): > 40 µM | TGI (OVCAR-5 ovarian): > 40 µM | GI50 (A498 renal): > 40 µM | TGI (A498 renal): > 40 µM | GI50 (MDA-MB-435): > 40 µM | TGI (MDA-MB-435): > 40 µM
